Experiments:
[1] = test system: murine bone marrow-derived macrophages; experiment: area under cytotoxicity dose-response curve (AUC (% cytotoxicity x dose, relative)); higher = more cytotoxic; details: duration: 6 days; dose range: 0.13-80 uM, 8 points
Procedure, shortened: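 Cytotoxicity is expressed as the area under the dose–response curve from GraphPad Prism version 10. To obtain it, primary murine bone marrow-derived macrophages were incubated for 6 days at 37 °C in 5% CO2 across final concentrations of 80–0.13 μM. Viability came from CellTiter-Glo luminescence, and percent cytotoxicity was normalised to vehicle and positive control wells.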

[2] = test system: Mycobacterium tuberculosis CDC1551 (intracellular, in murine BMDM); experiment: area under intracellular growth-inhibition dose-response curve (AUC (% inhibition x dose, relative)); higher = more potent; details: duration: 6 days; dose range: 0.13-80 uM, 8 points
Procedure, shortened: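 In 384-well opaque plates, primary murine bone marrow-derived macrophages were infected with luciferase-expressing M. tuberculosis CDC1551 (multiplicity of infection 1, 1 h) 24 h after seeding, then treated for 6 days across final concentrations of 80–0.13 μM. Growth was measured by Bright-Glo luciferin assay, normalised to a reference drug control and the lowest-concentration wells. The reported value is the area under the growth-inhibition dose–response curve from GraphPad Prism.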

Row | Compound | area under cytotoxicity dose-response curve [1] | area under intracellular growth-inhibition dose-response curve [2]
1 | O=C(NNC(=O)c1ccc(-c2ccc([N+](=O)[O-])cc2)o1)c1ccncc1 | 40.4 | 264
2 | Cc1sc(N/N=C/C=C/c2ccccc2)nc1-c1ccccc1 | 16.1 | 268
3 | CCc1ccc(C(=O)NCc2cccs2)s1 | 17.6 | 220
4 | C/C(=N/NC(N)=S)c1ccc(Br)s1 | < 0 | 268
5 | CC(=O)Nc1sc(N/N=C/c2ccc(N(C)C)cc2)nc1-c1ccc(C)cc1 | 6.8 | 263
6 | NC(=S)N/N=C/c1ccc(-c2cccc([N+](=O)[O-])c2)o1 | 51.4 | 206
7 | CCO.C[C@H]1c2cccc(O)c2C(=O)C2=C(O)[C@]3(O)C(O)=C(C(N)=O)C(=O)[C@@H](N(C)C)C3[C@@H](O)C21.Cl.O (some centres not stated) | 81.3 | 242
8 | CC1C/C(=C/c2ccncc2)C(=O)/C(=C/c2ccncc2)C1 (configuration not stated) | 54.5 | < 0
9 | Cc1cc(NC(=O)c2ccc([N+](=O)[O-])o2)ccc1NC(=O)c1ccco1 | 88.8 | 63.8
10 | CC[C@H](CO)NCCN[C@H](CC)CO.Cl | 52.1 | 68.5
11 | CC(=O)O[C@H]1C[C@@]2(C)[C@@H](C[C@@H](O)[C@H]3[C@@]4(C)CC[C@@H](O)[C@@H](C)[C@@H]4CC[C@@]32C)/C1=C(\CCC=C(C)C)C(=O)O | < 0 | 206
12 | CC1CCN(C(=O)c2ccc(CNc3c(N4CCCC4)c(=O)c3=O)cc2)CC1 | 78.3 | 166
13 | CCNC(=S)Nc1ccc(OCc2nc3ccccc3s2)cc1 | 35.3 | 273
14 | O=C(CCCOc1ccc(Cl)cc1Cl)Nc1ccccc1C(=O)O | 0.729 | 83.7
15 | Cn1nc(C(=O)OCC(=O)NCc2ccc(Cl)cc2)c2ccccc2c1=O | 4.5 | 83
16 | O=S(=O)(Nc1ccc(S(=O)(=O)Nc2nccs2)cc1)c1ccc2c(c1)OCCO2 | < 0 | 77.8
17 | CC(=O)c1ccc(NC(=S)Nc2ccc(N3CCOCC3)cc2)cc1.Cl | 40.4 | 260
18 | O=C(COC(=O)c1cc(Cl)nc(Cl)c1)NCCc1ccc(F)cc1 | 4.71 | 108
19 | CC[C@H]1OC(=O)[C@H](C)[C@@H](O[C@H]2C[C@@](C)(OC)[C@@H](O)[C@H](C)O2)[C@H](C)[C@@H](O[C@@H]2O[C@H](C)C[C@H](N(C)C)[C@H]2O)[C@](C)(OC)C[C@@H](C)C(=O)[C@H](C)[C@@H](O)[C@]1(C)O | 48.5 | 246
20 | CCc1cccc2sc(N3CCN(C(=O)c4ccc([N+](=O)[O-])o4)CC3)nc12 | 85.8 | 71.9
21 | CCn1c(SCc2ccc(C(=O)OC)o2)nnc1-c1c[nH]c2ccccc12 | 20.1 | 117

Row | Compound | area under cytotoxicity dose-response curve [1] | area under intracellular growth-inhibition dose-response curve [2]
22 | COc1ccccc1/C=C1\SC(=S)N(CCC(=O)Nc2ccc(C(=O)O)c(O)c2)C1=O | < 0 | 124
23 | O=C(CSc1cccc[n+]1[O-])CSc1cccc[n+]1[O-] | 9.55 | 29.1
24 | NC(=S)N/N=C1\CCOc2ccc(Cl)cc21 | 31.5 | 179
25 | CC1CC(C)CN(C(=O)C2CCC(CNc3c(N4CCCCC4)c(=O)c3=O)CC2)C1 (configuration not stated) | 0.615 | 125
26 | O=C(NC1CCCC1)c1cc2ccccc2o1 | 56.4 | 225
27 | O=C(Nc1cccc(Cl)c1)NC1CC2CCC1C2 (configuration not stated) | 31.1 | 232
28 | Cc1ccc(C(=O)NCc2ccc(Cl)cc2)o1 | 15.1 | 263
29 | Cc1cc(O)c2c(n1)c(C)cc1[nH]c(C)c(C)c12 | < 0 | 137
30 | O=[N+]([O-])c1ccc(N2CCCCC2)s1 | 14.5 | 165
31 | CCCN(Cc1nnc(-c2ccccc2Cl)o1)C(=O)c1cc([N+](=O)[O-])cc([N+](=O)[O-])c1 | 38.7 | 84
32 | COc1cc(/C=N/NC(N)=S)ccc1OCC(=O)Nc1ccc(C)c(C)c1 | 10.1 | 242
33 | Cn1cc(/C=N/NC(N)=S)c2ccccc21 | < 0 | 275
34 | Cc1nn(C(C)C(=O)NC2C(=O)N3C(C(=O)O)=C(CSc4nnnn4C)CSC23)cc1Cl (configuration not stated) | 9.03 | 194
35 | O=C(N/N=C/c1cccc2nccnc12)c1ccncc1 | 36.1 | 271
36 | Cc1ccccc1-n1c(C)cc(/C=N/NC(=O)c2ccncc2)c1C | < 0 | 214
37 | COc1ccc2nc(N3CCN(C(=O)c4ccc([N+](=O)[O-])o4)CC3)sc2c1 | 87 | 33.1
38 | CNc1nc(SC)nc2ccsc12 | 11.7 | 221
39 | O=C(CC1CCCCC1)NCc1ccccn1 | 3.91 | 222
40 | c1ccc(-c2noc(CC3CCCCC3)n2)nc1 | 5.13 | 200
41 | Br.COc1ccc(C2=CSC(/N=C/c3ccc(F)cc3)=NN2)cc1 | 49.1 | 182
42 | CCCCCCn1c(=O)c(C(=O)Nc2cnccn2)c(O)c2ccccc21 | < 0 | 56.4

Row | Compound | area under cytotoxicity dose-response curve [1] | area under intracellular growth-inhibition dose-response curve [2]
43 | CC1CCc2c(N3CCC(O)CC3)c(F)cc3c(=O)c(C(=O)O)cn1c23 (configuration not stated) | 67 | 162
44 | O=C(COc1ccc(/C=N/NC(=O)c2ccncc2)cc1)Nc1ccccc1 | 34.4 | 266
45 | Cc1nnc(SCC2=C(C(=O)O)N3C(=O)C(NC(=O)COc4ccc(F)cc4)C3SC2)s1 (configuration not stated) | 2.64 | 212
46 | Cn1nnnc1SCC1=C(C(=O)O)N2C(=O)C(NC(=O)Cn3nc(C(F)F)cc3C3CC3)C2SC1 (configuration not stated) | 38.2 | 177
47 | O=c1c2ccsc2ncn1Cc1ccc(Cl)cc1 | 15 | 120
48 | O=[N+]([O-])c1nn(-c2ccc(Cl)cc2)[n+]([O-])c1NCc1ccncc1 | 11.5 | 30.7
49 | COC(=O)C(C)NC(=S)N1CCN(c2c(F)cc3c(=O)c(C(=O)O)cn(C4CC4)c3c2OC)CC1C (configuration not stated) | 23.4 | 90
50 | O=C(CSc1ccccc1F)NNC(=O)c1ccncc1 | 38.8 | 230
51 | Cc1cc(/C=N/NC(N)=S)c(C)n1-c1ccc(Cl)c(Cl)c1 | < 0 | 257
52 | CC(=O)Nc1ccc(Sc2ccc([N+](=O)[O-])o2)cc1 | 21.3 | 108
53 | Cc1ccc2ccc3ccc(C)nc3c2n1 | 160 | 29.4
54 | COc1ccc(CNC(=O)c2c(C)nc3ccccn23)cc1 | 8.66 | 268
55 | Nc1ccc(C(=O)O)c(O)c1 | 62.3 | 182
56 | Cc1ccc(-c2nnc(C)c(N3CCCC3)n2)cc1 | 92.9 | 101
57 | O=C(NCc1ccco1)c1cc2ccccc2o1 | 135 | 105
58 | CCCCC(=O)NCc1ccc(F)cc1 | < 0 | 199
59 | CCOC(=O)c1ccc(NC(=O)c2cc3c(s2)CCC3)cc1 | 11.2 | 234
60 | COc1cc2c(cc1OC)CN(C(=O)c1ccc([N+](=O)[O-])o1)CC2 | 37 | 101
61 | CC1CCCC(/C=N/c2ccc(C(=O)O)c(O)c2)=C1O (configuration not stated) | < 0 | 135
